For one assay, the system named is HSV-1-deltaTK. Briefly: Plaque number reduction assay, HSV-1-deltaTK on HFFF. It is filed as cell-based. As to conditions: HSV-1 thymidine kinase (TK) deletion mutant on HFFF.
Assay [1] relates to C-terminal domain (CTD) of RNA polymerase II, serine 2 and serine 5. The experiment in a line: Immunoblotting: phosphorylation of the C-terminal domain of RNA polymerase II. As to conditions: 12 hours treatment, cell lines with incorporated SV40, all tested cell lines (FIG. 12A). It is filed as cell-based. As to the method: Cell were detached with rubber policeman and washed three times with ice-cold PBS and lysed in buffer (50 mM Tris, pH 7.4, 250 mM NaCl, 5 mM EDTA, 50 mM NaF, 1 mM Na3VO4, 1% Nonidet P40) containing mixture of protease and phosphatase inhibitors (Sigma-Aldrich St Louis, Mo., USA). 20 μg of total proteins were separated by SDS-polyacrylamide gel electrophoresis (SDS-PAGE) on 8% or 10% gels and transferred onto nitrocellulose membranes. Membranes were blocked in 5% milk and 0.1% Tween 20 in PBS and probed overnight with specific monoclonal antibodies or rabbit polyclonal sera. Primary antibodies specific for RNA polymerase II (all from Santa Cruz Biotechnology, California, USA) included: (i) N-20 used at 1 μg/ml, (ii) H14, specific for form phosphorylated at phosphoserine 5, used at 6 μg/ml and (iii) H5, specific for form phosphorylated at phosphoserine 2 used at 4 μg/ml. Additional primary mAb used in immunblots included (iv) anti-p53 (DO-1, in house) used at 1 μg/ml, (v) anti-p21^WAF1 (118, in house), used at 1 μg/ml), (vi) anti-actin (A-2066, Sigma-Aldrich St Louis, Mo., USA) used at 1 μg/ml, (vii) anti-T-antigen (419, in house), used at 1 μg/ml. All primary antibodies were diluted in PBS containing 5% powdered milk; 0.1% Tween 20. Peroxidase conjugated rabbit anti-mouse immunoglobulin or porcine anti-rabbit immunoglobulin antisera (DAKO, Glostrup, Denmark) were used as the secondary antibodies and visualised with ECL reagents (Amersham-Pharmacia, Little Chalfont, UK).
Modulation of expression from the HIV promoter by CDKI treatment may be mediated by transcriptional regulation. At the C-terminus of the largest subunit of RNA Pol II is an important regulatory domain referred to as CTD (C-terminal domain). We therefore investigated the effect of CDKIs on CTD serine 2 and serine 5 phosphorylation. […] Although the functions of CDKs and RNA polymerase II were suppressed, the expression from incorporated viral promoters was enhanced.
Cell were detached with rubber policeman and washed three times with ice-cold PBS and lysed in buffer (50 mM Tris, pH 7.4, 250 mM NaCl, 5 mM EDTA, 50 mM NaF, 1 mM Na3VO4, 1% Nonidet P40) containing mixture of protease and phosphatase inhibitors (Sigma-Aldrich St Louis, Mo., USA). 20 μg of total proteins were separated by SDS-polyacrylamide gel electrophoresis (SDS-PAGE) on 8% or 10% gels and transferred onto nitrocellulose membranes. Membranes were blocked in 5% milk and 0.1% Tween 20 in PBS and probed overnight with specific monoclonal antibodies or rabbit polyclonal sera. […]
Background: A western blot detects proteins with antibodies after separation by electrophoresis.

A further assay deals with HSV-1. The experiment in a line: Plaque number reduction assay, HSV-1 on HFFF. In kind it is cell-based, Herpes simplex virus type 1 strain 17.
Another assay has as its system HSV-2. Briefly: Plaque number reduction assay, HSV-2 on HFFF. In kind it is cell-based, HSV-2 strain HG52.
The subject of another assay is VV. It is filed as cell-based, Vaccinia virus strain WR. The following applies: Vaccinia virus on HFFF.
Another assay relates to HAd4. The experiment in a line: Plaque number reduction assay, HAd4 on A549. In kind it is cell-based, Human adenovirus type 4 (HAdV-4) strain RI-6.
The test system of the next assay is HCMV. Briefly: Plaque number reduction assay, HCMV on HFFF. It is filed as cell-based, Human cytomegalovirus strain Toledo.
For a further assay, the system named is MV. The experiment in a line: MV syncytium reduction assay in B95a cells. It is filed as cell-based, Measles virus wildtype strain WTFb.
For a further assay, the system named is IV. It is filed as cell-based, Influenza Virus H1N1 strain A/PR/8/34. The following applies: MDCK cells.
A further assay relates to SV40 large T-antigen. In kind it is cell-based. The following applies: SV40-infected MCF-7 and T47D; 20 μM Roscovitine or 8 μM 105 (FIG. 8).
For assay [2], the system named is SV40 large T-antigen in COS-1 cells. Briefly: Expression from SV40 promoter incorporated in the cellular genome (COS-1 cells). As to conditions: COS-1 cells (FIG. 10). In kind it is cell-based. Here is the method: Cell were detached with rubber policeman and washed three times with ice-cold PBS and lysed in buffer (50 mM Tris, pH 7.4, 250 mM NaCl, 5 mM EDTA, 50 mM NaF, 1 mM Na3VO4, 1% Nonidet P40) containing mixture of protease and phosphatase inhibitors (Sigma-Aldrich St Louis, Mo., USA). 20 μg of total proteins were separated by SDS-polyacrylamide gel electrophoresis (SDS-PAGE) on 8% or 10% gels and transferred onto nitrocellulose membranes. Membranes were blocked in 5% milk and 0.1% Tween 20 in PBS and probed overnight with specific monoclonal antibodies or rabbit polyclonal sera. Primary antibodies specific for RNA polymerase II (all from Santa Cruz Biotechnology, California, USA) included: (i) N-20 used at […] (ii) H14, specific for form phosphorylated at phosphoserine 5, used at 6 μg/ml and (iii) H5, specific for form phosphorylated at phosphoserine 2 used at 4 μg/ml. Additional primary mAb used in immunblots included (iv) anti-p53 (D0-1, in house, […]) used at 1 μg/ml, (v) anti-p21^WAF1 (118, in house), used at 1 μg/ml), (vi) anti-actin (A-2066, Sigma-Aldrich St Louis, Mo., USA) used at 1 μg/ml, (vii) anti-T-antigen (419, in house, Lane), used at 1 μg/ml. All primary antibodies were diluted in PBS containing 5% powdered milk; 0.1% Tween 20. […]

Assay [3] deals with HIV promoter (pHIV-lacZ, extrachromosomal) in H1299-TAT cells. The experiment in a line: β-galactosidase expression from pHIV-lacZ transiently transfected to H1299-TAT. As to conditions: H1299-TAT cells (FIG. 11).
Assay [4] concerns CMV promoter (plasmid pCMV-lacZ). Briefly: β-galactosidase expression from transiently transfected pCMV-lacZ in MCF-7 and T47D. As to conditions: transiently transfected MCF-7 and T47D (FIG. 9).
For assay [5], the system named is HIV promoter integrated into cellular DNA (H1299-HIV cells). The experiment in a line: β-galactosidase expression from pHIV-lacZ incorporated to cellular genome (H1299-HIV). The following applies: HIV promoter integrated into cellular DNA (FIG. 11).
Another assay addresses CDK9 (Homo sapiens, UniProt P50750). The following applies: Olomoucine II compared with Roscovitine; cited from earlier work.
Assay [6] concerns tumor suppressor protein p53. As to conditions: Olomoucine II compared with Roscovitine; cited from earlier work.

Chain of CDK9 (P50750 whole entry, species assumed): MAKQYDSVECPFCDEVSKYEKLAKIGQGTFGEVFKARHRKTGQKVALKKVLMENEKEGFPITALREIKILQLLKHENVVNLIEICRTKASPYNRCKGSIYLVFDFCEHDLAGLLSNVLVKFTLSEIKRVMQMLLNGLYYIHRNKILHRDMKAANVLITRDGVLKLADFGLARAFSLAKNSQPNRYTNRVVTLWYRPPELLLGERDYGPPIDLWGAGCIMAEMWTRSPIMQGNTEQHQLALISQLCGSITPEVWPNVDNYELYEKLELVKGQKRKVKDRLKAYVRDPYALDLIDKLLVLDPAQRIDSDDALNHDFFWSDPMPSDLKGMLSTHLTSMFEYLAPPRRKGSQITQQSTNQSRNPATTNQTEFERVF
Chain of CDK9 (O60563 whole entry partner, species assumed): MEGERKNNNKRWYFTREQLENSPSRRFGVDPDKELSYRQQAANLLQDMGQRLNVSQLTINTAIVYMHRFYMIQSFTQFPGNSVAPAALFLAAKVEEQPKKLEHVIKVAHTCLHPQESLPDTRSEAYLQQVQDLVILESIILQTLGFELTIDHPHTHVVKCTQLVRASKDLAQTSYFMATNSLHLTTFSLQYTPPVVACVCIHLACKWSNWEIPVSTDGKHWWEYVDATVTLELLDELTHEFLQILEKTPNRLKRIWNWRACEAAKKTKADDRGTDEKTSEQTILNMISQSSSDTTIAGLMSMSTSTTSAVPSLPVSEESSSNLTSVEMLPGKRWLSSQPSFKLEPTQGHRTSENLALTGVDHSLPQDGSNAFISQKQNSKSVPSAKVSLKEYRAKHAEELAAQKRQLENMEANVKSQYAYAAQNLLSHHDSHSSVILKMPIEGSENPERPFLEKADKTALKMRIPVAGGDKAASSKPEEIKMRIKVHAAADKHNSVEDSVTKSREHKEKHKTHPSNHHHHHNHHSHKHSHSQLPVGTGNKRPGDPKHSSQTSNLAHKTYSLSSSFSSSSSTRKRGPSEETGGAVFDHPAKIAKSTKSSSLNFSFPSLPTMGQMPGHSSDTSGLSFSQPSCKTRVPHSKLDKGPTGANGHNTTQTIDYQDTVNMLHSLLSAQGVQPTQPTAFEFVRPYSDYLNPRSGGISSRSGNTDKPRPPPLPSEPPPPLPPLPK

For the compound `Nc1nc2c(ncn2COCCO)c(=O)[nH]1` [Acyclovir, 9-[(2-Hydroxyethoxy)methyl]guanine, reference compound], the “inhibition of virus replication (in words)” value (“inhibition” below) with HSV-1-deltaTK is “resistant”.

For `CC[C@H](CO)Nc1nc(NCc2ccccc2)c2ncn(C(C)C)c2n1` [Roscovitine, 2-(R)-(1-Ethyl-2-hydroxyethylamino)-6-benzylamino-9-isopropylpurine, reference compound], in [1], the “phosphorylation of both serine 2 and serine 5 of RNA polymerase II CTD” value is given as “inhibited”. For the same compound, the “inhibition” value was “did not inhibit” in the assay with HSV-1; “did not inhibit” in the assay with HSV-2; “no overt effect” in the assay with VV; “inhibited HAd4 replication” in the assay with HAd4; “equally sensitive” in the assay with HCMV; “ineffective” with MV. Also, the “inhibition” value in the assay with IV was “ineffective”. For the same compound, in the assay on SV40 large T-antigen, the “level of large T-antigen” value is recorded as “reduced level”. The “large T-antigen expression” value in assay [2] is recorded as “stimulated large T-antigen expression”. Further, in [3], the “expression from pHIV-lacZ (extrachromosomal location), β-galactosidase readout” value is “inhibited”. For the same compound, the “expression from CMV promoter (β-galactosidase activity)” value in assay [4] is on record as “inhibited expression”. Besides, the “increase of reporter readout” value in assay [5] amounted to 2.5 times.

With `CC[C@H](CO)Nc1nc(NCc2ccccc2O)c2ncn(C(C)C)c2n1` [Olomoucine II], the “higher inhibitory activity for CDK9” value on CDK9 is 10 fold. Besides, the “lower concentrations inducing nuclear accumulation and transcriptional activation of p53” value in assay [6] is recorded as 2-3 fold.

The values above are taken from US9023857B2, “Substituted 6-(2-aminobenzylamino)purine derivatives, their use as medicaments and preparations containing these compounds” (Univerzita Palackeho V Olomouci, priority 2009, dated 2015).
